#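 Assay format: 96-well plates, 48-hour exposure. The concentration for 50% growth inhibition is given as GI50.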 Active and inactive are the calls of the source. Rule as the data show it: active = GI50 up to about 1.1 µM and inactive = higher.
# How the values were obtained:
# Assay in all cases: NCI-60 cell line screen, 48 h
# [1] = test system: CAKI-1
# [2] = test system: NCI-H522
# [3] = test system: SK-OV-3
# [4] = test system: BT-549
# [5] = test system: Malme-3M
# [6] = test system: SW-620
# [7] = test system: LOX IMVI
# [8] = test system: COLO 205
# [9] = test system: SNB-19
# [10] = test system: CCRF-CEM
# [11] = test system: A498
# [12] = test system: HCT-116
# [13] = test system: MDA-MB-435
# [14] = test system: SN12C
# [15] = test system: NCI/ADR-RES
# [16] = test system: U-251
# [17] = test system: EKVX
# [18] = test system: UACC-257
# [19] = test system: SR
Structure (SMILES),GI50 [1],GI50 [2],GI50 [3],GI50 [4],GI50 [5],GI50 [6],GI50 [7],GI50 [8],GI50 [9],GI50 [10],GI50 [11],GI50 [12],GI50 [13],GI50 [14],GI50 [15],GI50 [16],GI50 [17],GI50 [18],GI50 [19]
COC(=O)Nc1nc2cc(C(=O)c3ccc[nH]3)ccc2[nH]1,0.332 µM (active),0.402 µM (active),2.03 µM (inactive),> 100 µM (inactive),0.418 µM (active),0.359 µM (active),0.462 µM (active),0.342 µM (active),1.19 µM (inactive),0.577 µM (active),3.04 µM (inactive),0.267 µM (active),0.117 µM (active),1.15 µM (inactive),0.465 µM (active),0.721 µM (active),–,–,–
O[C@]12CCCC[C@H]1CCC2,> 100 µM (inactive),> 100 µM (inactive),> 100 µM (inactive),–,> 100 µM (inactive),> 100 µM (inactive),> 100 µM (inactive),> 100 µM (inactive),> 100 µM (inactive),> 100 µM (inactive),> 100 µM (inactive),> 100 µM (inactive),–,> 100 µM (inactive),–,> 100 µM (inactive),> 100 µM (inactive),> 100 µM (inactive),–
COc1ccc(OC)c(NC(=O)C2=C(C)NC(C)=C(C(=O)Nc3cc(OC)ccc3OC)C2c2ccco2)c1,89.5 µM (inactive),> 100 µM (inactive),> 100 µM (inactive),–,> 100 µM (inactive),> 100 µM (inactive),–,> 100 µM (inactive),> 100 µM (inactive),> 100 µM (inactive),> 100 µM (inactive),> 100 µM (inactive),–,> 100 µM (inactive),–,> 100 µM (inactive),> 100 µM (inactive),–,64.6 µM (inactive)
O=C(C#Cc1ccccc1)Nc1ccccc1CC(c1c[nH]c2ccccc12)c1c[nH]c2ccccc12,16.9 µM (inactive),11.6 µM (inactive),33.2 µM (inactive),–,25.6 µM (inactive),12.1 µM (inactive),7.43 µM (inactive),18.2 µM (inactive),26 µM (inactive),3.3 µM (inactive),–,–,–,8.83 µM (inactive),–,–,12.3 µM (inactive),23.8 µM (inactive),–
Cc1nc2c(cc1C(=O)N/N=C/c1ccc([N+](=O)[O-])cc1)c(=O)n(C)c(=O)n2C,51.8 µM (inactive),–,39.4 µM (inactive),30.5 µM (inactive),> 100 µM (inactive),> 100 µM (inactive),–,> 100 µM (inactive),21.4 µM (inactive),> 100 µM (inactive),–,56.4 µM (inactive),> 100 µM (inactive),> 100 µM (inactive),> 100 µM (inactive),19.2 µM (inactive),91.2 µM (inactive),> 100 µM (inactive),–
CSc1cc(Cl)c(C)cc1S(=O)(=O)NC(=O)NNc1ccc(C)cc1,82 µM (inactive),> 100 µM (inactive),68.9 µM (inactive),–,> 100 µM (inactive),> 100 µM (inactive),> 100 µM (inactive),> 100 µM (inactive),> 100 µM (inactive),> 100 µM (inactive),> 100 µM (inactive),> 100 µM (inactive),> 100 µM (inactive),> 100 µM (inactive),64.3 µM (inactive),> 100 µM (inactive),> 100 µM (inactive),–,40.2 µM (inactive)
O=C1CCCNn2c(nc3ncccc3c2=O)N1,> 100 µM (inactive),> 100 µM (inactive),> 100 µM (inactive),> 100 µM (inactive),> 100 µM (inactive),> 100 µM (inactive),> 100 µM (inactive),> 100 µM (inactive),> 100 µM (inactive),> 100 µM (inactive),> 100 µM (inactive),> 100 µM (inactive),> 100 µM (inactive),–,> 100 µM (inactive),> 100 µM (inactive),> 100 µM (inactive),> 100 µM (inactive),–
CCOP(=O)(Cc1nc(C#N)c(N)o1)OCC,> 100 µM (inactive),> 100 µM (inactive),> 100 µM (inactive),–,> 100 µM (inactive),> 100 µM (inactive),> 100 µM (inactive),> 100 µM (inactive),> 100 µM (inactive),> 100 µM (inactive),> 100 µM (inactive),> 100 µM (inactive),> 100 µM (inactive),> 100 µM (inactive),–,> 100 µM (inactive),> 100 µM (inactive),> 100 µM (inactive),> 100 µM (inactive)
CC(=O)OC1CCN(C(=O)c2ccccc2)CC1CC1(c2cc3ccccc3[nH]2)OCCO1 (stereo not given),> 100 µM (inactive),78.9 µM (inactive),> 100 µM (inactive),–,> 100 µM (inactive),> 100 µM (inactive),83.2 µM (inactive),53.1 µM (inactive),> 100 µM (inactive),48.3 µM (inactive),26.7 µM (inactive),72.6 µM (inactive),42.8 µM (inactive),84.3 µM (inactive),51.6 µM (inactive),77.4 µM (inactive),83 µM (inactive),50 µM (inactive),–
C/C=C(\C)C(=O)N1c2ccccc2CC1c1c(C)[nH]c2ccccc12 (stereo not given),48.8 µM (inactive),42.3 µM (inactive),> 100 µM (inactive),–,32 µM (inactive),> 100 µM (inactive),> 100 µM (inactive),23.3 µM (inactive),> 100 µM (inactive),42.5 µM (inactive),> 100 µM (inactive),86.9 µM (inactive),–,> 100 µM (inactive),–,91.6 µM (inactive),71.1 µM (inactive),25.2 µM (inactive),> 100 µM (inactive)
Cc1ccccc1Nc1nc(NNC(=O)Cc2ccccc2)nc(NNC(=O)c2ccncc2)n1,> 10 µM (inactive),–,> 10 µM (inactive),> 10 µM (inactive),> 10 µM (inactive),–,> 10 µM (inactive),> 10 µM (inactive),–,> 10 µM (inactive),–,–,–,> 10 µM (inactive),> 10 µM (inactive),> 10 µM (inactive),> 10 µM (inactive),> 10 µM (inactive),> 10 µM (inactive)
COc1cc2c3c(c1OCc1ccccc1)NCCC3NCC2 (stereo not given),> 100 µM (inactive),> 100 µM (inactive),–,–,> 100 µM (inactive),> 100 µM (inactive),> 100 µM (inactive),> 100 µM (inactive),> 100 µM (inactive),> 100 µM (inactive),> 100 µM (inactive),> 100 µM (inactive),–,> 100 µM (inactive),–,> 100 µM (inactive),> 100 µM (inactive),> 100 µM (inactive),> 100 µM (inactive)
CCCCN(CCCC)CC(C(=O)Nc1ccc([N+](=O)[O-])cc1[N+](=O)[O-])/C(C)=N\NC(=S)NN (stereo not given),–,25.5 µM (inactive),> 100 µM (inactive),–,> 100 µM (inactive),> 100 µM (inactive),> 100 µM (inactive),> 100 µM (inactive),–,49.4 µM (inactive),> 100 µM (inactive),> 100 µM (inactive),–,–,–,> 100 µM (inactive),65.6 µM (inactive),> 100 µM (inactive),–
CC(C)=CCC[C@](C)(O[C@@H]1O[C@H](CO)[C@@H](O)[C@H](O)[C@H]1O)[C@H]1CC[C@]2(C)[C@@H]1[C@H](O)C[C@@H]1[C@@]3(C)CC[C@@H](O)C(C)(C)[C@@H]3[C@@H](O[C@@H]3O[C@H](CO)[C@@H](O)[C@H](O)[C@H]3O)C[C@]12C.C[C@@H]1O[C@@H](O[C@H]2[C@H](O[C@H]3C[C@]4(C)[C@H](C[C@H](O)[C@@H]5[C@@H]([C@@]6(C)CC[C@H](C(C)(C)O)O6)CC[C@]54C)[C@@]4(C)CC[C@H](O)C(C)(C)[C@H]34)O[C@H](CO)[C@@H](O)[C@@H]2O)[C@H](O)[C@H](O)[C@H]1O,> 100 µM (inactive),> 100 µM (inactive),> 100 µM (inactive),> 100 µM (inactive),–,> 100 µM (inactive),> 100 µM (inactive),> 100 µM (inactive),> 100 µM (inactive),> 100 µM (inactive),> 100 µM (inactive),> 100 µM (inactive),> 100 µM (inactive),> 100 µM (inactive),–,> 100 µM (inactive),> 100 µM (inactive),> 100 µM (inactive),> 100 µM (inactive)
Cc1cc(=O)oc2cc(OCC(O)COC(C)C)ccc12 (stereo not given),> 100 µM (inactive),> 100 µM (inactive),> 100 µM (inactive),–,> 100 µM (inactive),99.1 µM (inactive),88.3 µM (inactive),> 100 µM (inactive),> 100 µM (inactive),> 100 µM (inactive),–,> 100 µM (inactive),–,> 100 µM (inactive),> 100 µM (inactive),> 100 µM (inactive),> 100 µM (inactive),> 100 µM (inactive),> 100 µM (inactive)
CC(=O)c1cccc(Nc2nc3ccccc3c3[nH]c4ccccc4c23)c1,3.8 µM (inactive),2.57 µM (inactive),5.42 µM (inactive),> 100 µM (inactive),3.61 µM (inactive),4.81 µM (inactive),–,2.23 µM (inactive),16.2 µM (inactive),5.74 µM (inactive),–,4.28 µM (inactive),4.48 µM (inactive),3.49 µM (inactive),4.05 µM (inactive),3.98 µM (inactive),3.05 µM (inactive),9.04 µM (inactive),–

# Source: ChEMBL document CHEMBL1201862, “PubChem BioAssay data set” (2004)
